The conditions of data set [1]: in vivo; cited from earlier work.
Data set [2] in a line: In vitro fluorescence quantification of PVP-ICG formulations (Kollidon 17 PF), microplate reader. As to conditions: λEx/Em 770/818 nm.

Consider one compound from patent US11007282B2, “Compositions for circulatory system visualization” (DICRONIS SAGL, priority 2015, dated 2021).

Consider `CC1(C)C(/C=C/C=C/C=C/C=C2\N(CCCCS(=O)(=O)O)c3ccc4ccccc4c3C2(C)C)=[N+](CCCCS(=O)(=O)[O-])c2ccc3ccccc3c21` [ICG, sodium 4-[2-[(1E,3E,5E,7Z)-7-[1,1-dimethyl-3-(4-sulfonatobutyl)benzo[e]indol-2-ylidene]hepta-1,3,5-trienyl]-1,1-imethylbenzo[e]-indol-3-ium-3-yl]butane-1-sulfonate], for which the route of excretion entry in data set [1] is listed as “excreted exclusively in the bile”. Also, the “n-fold increase of ICG fluorescence in presence of PVP compared to water solution” value is reported as 1.32 n-fold in data set [2] (ICG 0.025 mg/mL, Kollidon 17 PF 0.25 g/mL (1:10'000)); 1.68 n-fold in data set [2] (ICG 0.06 mg/mL, Kollidon 17 PF 0.25 g/mL (1:4'166)); 2.2 n-fold in data set [2] (ICG 0.15 mg/mL, Kollidon 17 PF 0.25 g/mL (1:1'666)).
